# Where a name gives a salt, the structure may show the parent alone.
# How the values were obtained:
# [1] = system: rats anesthetized with pentobarbital sodium; assay: Bradycardic effect and intracardiac conduction times (ECG, arterial pressure) in pentobarbital-anesthetized rats; type: in vivo; conditions: for % ABP (mean arterial blood pressure) / % HR (heart rate): % change at peak of action; for % modification of the ECG intervals: PQ (atrioventricular conduction time) / % modification of the ECG intervals: QRS (intraventricular conduction time) / % modification of the ECG intervals: QTS / % modification of the ECG intervals: TP (electrocardiac diastole): at peak of action
# Description: b) The bradycardic effect and the analysis of the intracardiac conduction times were studied on rats anesthetized with pentobarbital sodium (40 mg/kg ip) and left in spontaneous ventilation. The electrocardiogram is recorded simultaneously in the standard leads OI, OII and OIII; the arterial blood pressure is measured on a femoral artery. The percentage changes are considered at the peak of action. The results relating to the compounds A, B, J, G and N are given in Table III, by way of non-limiting example.
# [2] = system: conscious dogs; assay: Bradycardic effect in conscious dogs with hydralazine-raised heart rate (Kobinger and Lillie); type: in vivo; conditions: for Heart rate after / Heart rate before / Heart rate Change: 1 mg/kg iv; for Heart rate after: after test product; for Heart rate after / Heart rate Change: hydralazine tachycardia; for Heart rate before: before test product, after hydralazine 1 mg/kg iv
# Description: When the latter has stabilized, the test products are injected intravenously.
# [3] = Solubility in water; type: physicochemical
# [4] = system: Right atrium; assay: Chronotropic effect on isolated spontaneously beating right atrium; set-up: species or system guineapig; conditions: Cavia porcellus, spontaneous rhythm, percentage change; for inhibition at 0.3 µg/mL: 0.3 ug/ml; for inhibition at 1 µg/mL: 1 ug/ml
# Description: (§1) c) Finally, the chronotropic and inotropic activities were measured on isolated guineapig atria placed in isolated organ cells. The organs are then connected to force gauges. The right atrium, beating in a spontaneous rhythm, enables the negative chronotropic effects of the products to be assessed. As regards the left atria, these are electrically stimulated at a fixed rhythm so as to evaluate actions on the inotropic effect. The percentage changes are recorded in Table V for the compounds A, B, G and J, by way of non-limiting examples.
# [5] = Acute intravenous toxicity in mice (LD50, Miller and Tainter); conditions: mouse, in vivo, mice weighing 20 to 22 g
# Description: The chemical compounds described above were subjected to toxicity controls. This study was carried out on conventional mice weighing 20 to 22 g. The watersoluble salts of the compounds of general formula I were administered intravenously. The 50% lethal dose (LD50) is calculated according to the method of Miller and Tainter (Proc. Soc. Exp. Biol. Med. 1944, 57, 261).
# [6] = system: anesthetized rats; assay: Coronary ligation in anesthetized rats (antiarrhythmic activity and heart rate); type: in vivo; conditions: for % fall in heart rate after 1 min: 1 min after injection; for % fall in heart rate after 1 min / % fall in heart rate after 10 min: % change relative to controls; for % fall in heart rate after 10 min: 10 min after injection; for % fall in arrhythmias: coronary ligation
# From the text: a) The technique of coronary ligation in anesthetized rats according to Clark et al. (J. Pharm. […] SC denotes the percentage reduction in disorders of rhythm induced by these compounds, n denotes the number of animals.
# [7] = system: Left atrium; assay: Inotropic effect on isolated electrically stimulated left atrium; set-up: species or system guineapig; conditions: Cavia porcellus, electrically stimulated at fixed rhythm, percentage change; for inhibition at 0.3 µg/mL: 0.3 ug/ml; for inhibition at 1 µg/mL: 1 ug/ml
# Description: as §1
smiles,measurement,setting,value
"COc1ccc(CCN(C)CCCN2COc3ccccc3C2=O)cc1OC.Cl [Compound A, 2,3-Dihydro-3-{3-[(methyl)(3,4-dimethoxyphenethyl)amino]propyl}-4H-1,3-benzoxazin-4-one hydrochloride]",% ABP (mean arterial blood pressure),[1]; 3 mg/kg iv,-33%
same,% HR (heart rate),[1]; 3 mg/kg iv,-31%
same,% modification of the ECG intervals: PQ (atrioventricular conduction time),[1]; 3 mg/kg iv,+26%
same,% modification of the ECG intervals: QRS (intraventricular conduction time),[1]; 3 mg/kg iv,+11%
same,% modification of the ECG intervals: QTS,[1]; 3 mg/kg iv,+29%
same,% modification of the ECG intervals: TP (electrocardiac diastole),[1]; 3 mg/kg iv,+76%
same,Heart rate after,[2],140 bts/min
same,Heart rate before,[2],215 bts/min
same,Heart rate Change,[2],-35%
same,solubility,[3],100 mg/mL
same,inhibition at 0.3 µg/mL,[4],15%
same,inhibition at 1 µg/mL,[4],19%
same,LD50,[5],27 mg/kg
same,% fall in heart rate after 1 min,[6]; 2.5 mg/kg iv,-30%
same,% fall in heart rate after 10 min,[6]; 2.5 mg/kg iv,-11%
same,% fall in arrhythmias,[6]; 2.5 mg/kg iv,-9%
same,% fall in heart rate after 1 min,[6]; 10 mg/kg iv,-50%
same,% fall in heart rate after 10 min,[6]; 10 mg/kg iv,-19%
same,% fall in arrhythmias,[6]; 10 mg/kg iv,-76%
same,inhibition at 0.3 µg/mL,[7],16%
same,inhibition at 1 µg/mL,[7],15%
"COc1ccc(CCN(C)CCCN2COc3cc(OC)c(OC)cc3C2=O)cc1OC.Cl [Compound B, 2,3-Dihydro-6,7-dimethoxy-3-{3-[(methyl)(3,4-dimethoxyphenethyl)amino]propyl}-4H-1,3-benzoxazin-4-one hydrochloride]",% ABP (mean arterial blood pressure),[1]; 1 mg/kg iv,-16%
same,% HR (heart rate),[1]; 1 mg/kg iv,-32%
same,% modification of the ECG intervals: PQ (atrioventricular conduction time),[1]; 1 mg/kg iv,+9%
same,% modification of the ECG intervals: QRS (intraventricular conduction time),[1]; 1 mg/kg iv,+12%
same,% modification of the ECG intervals: QTS,[1]; 1 mg/kg iv,+38%
same,% modification of the ECG intervals: TP (electrocardiac diastole),[1]; 1 mg/kg iv,+95%
same,% ABP (mean arterial blood pressure),[1]; 3 mg/kg iv,-34%
same,% HR (heart rate),[1]; 3 mg/kg iv,-55%
same,% modification of the ECG intervals: PQ (atrioventricular conduction time),[1]; 3 mg/kg iv,+17%
same,% modification of the ECG intervals: QRS (intraventricular conduction time),[1]; 3 mg/kg iv,+24%
same,% modification of the ECG intervals: QTS,[1]; 3 mg/kg iv,+75%
same,% modification of the ECG intervals: TP (electrocardiac diastole),[1]; 3 mg/kg iv,+211%
same,Heart rate after,[2],105 bts/min
same,Heart rate before,[2],175 bts/min
same,Heart rate Change,[2],-40%
same,solubility,[3],> 100 mg/mL
same,inhibition at 0.3 µg/mL,[4],27%
same,inhibition at 1 µg/mL,[4],64%
same,LD50,[5],48 mg/kg
same,% fall in heart rate after 1 min,[6]; 2.5 mg/kg iv,-50%
same,% fall in heart rate after 10 min,[6]; 2.5 mg/kg iv,-28%
same,% fall in arrhythmias,[6]; 2.5 mg/kg iv,-38%
same,% fall in heart rate after 1 min,[6]; 10 mg/kg iv,-66%
same,% fall in heart rate after 10 min,[6]; 10 mg/kg iv,-60%
same,% fall in arrhythmias,[6]; 10 mg/kg iv,-80%
same,inhibition at 0.3 µg/mL,[7],9%
same,inhibition at 1 µg/mL,[7],6.5%
"COc1ccc(CCN(C)CCCN2COc3c(OC)cccc3C2=O)cc1OC.Cl [Compound C, 2,3-Dihydro-3-{3-[(methyl)(3,4-dimethoxyphenethyl)amino]propyl}-8-methoxy-4H-1,3-benzoxazin-4-one hydrochloride]",solubility,[3],~100 mg/mL
"COc1ccc2c(c1)C(=O)N(CCCN(C)CCc1ccc(OC)c(OC)c1)CO2.Cl [Compound D, 2,3-Dihydro-3-{3-[(methyl)(3,4-dimethoxyphenethyl)amino]propyl}-6-methoxy-4H-1,3-benzoxazin-4-one hydrochloride]",solubility,[3],> 100 mg/mL
"COc1ccc2c(c1)OCN(CCCN(C)CCc1ccc(OC)c(OC)c1)C2=O.Cl [Compound E, 2,3-Dihydro-3-{3-[(methyl)(3,4-dimethoxyphenethyl)amino]propyl}-7-methoxy-4H-1,3-benzoxazin-4-one hydrochloride]",solubility,[3],100 mg/mL
"COc1ccc(CCN(C)CCCN2COc3ccc(C)cc3C2=O)cc1OC.Cl [Compound F, 2,3-Dihydro-3-{3-[(methyl)(3,4-dimethoxyphenethyl)amino]propyl}-6-methyl-4H-1,3-benzoxazin-4-one hydrochloride]",solubility,[3],~100 mg/mL
"COc1ccc(CCN(C)CCCN2COc3cc(C)ccc3C2=O)cc1OC.Cl [Compound G, 2,3-Dihydro-3-{3-[(methyl)(3,4-dimethoxyphenethyl)amino]propyl}-7-methyl-4H-1,3-benzoxazin-4-one hydrochloride]",% ABP (mean arterial blood pressure),[1]; 1 mg/kg iv,-10%
same,% HR (heart rate),[1]; 1 mg/kg iv,-18%
same,% modification of the ECG intervals: PQ (atrioventricular conduction time),[1]; 1 mg/kg iv,+10%
same,% modification of the ECG intervals: QRS (intraventricular conduction time),[1]; 1 mg/kg iv,+5%
same,% modification of the ECG intervals: QTS,[1]; 1 mg/kg iv,+12%
same,% modification of the ECG intervals: TP (electrocardiac diastole),[1]; 1 mg/kg iv,+32%
same,solubility,[3],90 mg/mL
same,inhibition at 1 µg/mL,[4],35%
same,% fall in heart rate after 1 min,[6]; 2.5 mg/kg iv,-39%
same,% fall in heart rate after 10 min,[6]; 2.5 mg/kg iv,-16%
same,% fall in arrhythmias,[6]; 2.5 mg/kg iv,-1%
same,inhibition at 1 µg/mL,[7],4%
"COc1ccc(CCN(C)CCCN2COc3c(C)cccc3C2=O)cc1OC.Cl [Compound H, 2,3-Dihydro-3-{3-[(methyl)(3,4-dimethoxyphenethyl)amino]propyl}-8-methyl-4H-1,3-benzoxazin-4-one hydrochloride]",solubility,[3],80 mg/mL
"COc1ccc(CCN(C)CCCN2COc3cc(Cl)ccc3C2=O)cc1OC.Cl [Compound J, 7-Chloro-2,3-dihydro-3-{3-[(methyl)(3,4-dimethoxyphenethyl)amino]propyl}-4H-1,3-benzoxazin-4-one hydrochloride]",% ABP (mean arterial blood pressure),[1]; 1 mg/kg iv,-13%
same,% HR (heart rate),[1]; 1 mg/kg iv,-16%
same,% modification of the ECG intervals: PQ (atrioventricular conduction time),[1]; 1 mg/kg iv,+9%
same,% modification of the ECG intervals: QRS (intraventricular conduction time),[1]; 1 mg/kg iv,+12%
same,% modification of the ECG intervals: QTS,[1]; 1 mg/kg iv,+12%
same,% modification of the ECG intervals: TP (electrocardiac diastole),[1]; 1 mg/kg iv,+29%
same,solubility,[3],120 mg/mL
same,inhibition at 1 µg/mL,[4],29%
same,% fall in heart rate after 1 min,[6]; 2.5 mg/kg iv,-32%
same,% fall in heart rate after 10 min,[6]; 2.5 mg/kg iv,-12%
same,% fall in arrhythmias,[6]; 2.5 mg/kg iv,-37%
same,inhibition at 1 µg/mL,[7],11%
"COc1ccc(CCN(C)CCCN2COc3ccc(Br)cc3C2=O)cc1OC.Cl [Compound K, 6-Bromo-2,3-dihydro-3-{3-[(methyl)(3,4-dimethoxyphenethyl)amino]propyl}-4H-1,3-benzoxazin-4-one hydrochloride]",solubility,[3],90 mg/mL
"COc1ccc(CCN(C)CCCN2C(=O)c3cccc(OC)c3OC2C)cc1OC.Cl (centres unmarked) [Compound L, 2,3-Dihydro-3-{3-[(methyl)(3,4-dimethoxyphenethyl)amino]propyl}-8-methoxy-2-methyl-4H-1,3-benzoxazin-4-one hydrochloride]",solubility,[3],100 mg/mL
"COc1ccc(CCN(C)CCCN2C(=O)c3cc(OC)c(OC)cc3OC2C)cc1OC.Cl (centres unmarked) [Compound M, 2,3-Dihydro-6,7-dimethoxy-3-{3-[(methyl)(3,4-dimethoxyphenethyl)amino]propyl}-2-methyl-4H-1,3-benzoxazin-4-one hydrochloride]",solubility,[3],100 mg/mL
"CCCCCCCC1Oc2cc(OC)c(OC)cc2C(=O)N1CCCN(C)CCc1ccc(OC)c(OC)c1 (centres unmarked) [Compound N, hydrochloride]",% ABP (mean arterial blood pressure),[1]; 1 mg/kg iv,-9%
same,% HR (heart rate),[1]; 1 mg/kg iv,-12%
same,% modification of the ECG intervals: PQ (atrioventricular conduction time),[1]; 1 mg/kg iv,+7%
same,% modification of the ECG intervals: QRS (intraventricular conduction time),[1]; 1 mg/kg iv,+12%
same,% modification of the ECG intervals: QTS,[1]; 1 mg/kg iv,+10%
same,% modification of the ECG intervals: TP (electrocardiac diastole),[1]; 1 mg/kg iv,+21%
same,solubility,[3],100 mg/mL
same,% fall in heart rate after 1 min,[6]; 2.5 mg/kg iv,-4%
same,% fall in heart rate after 10 min,[6]; 2.5 mg/kg iv,-6%
same,% fall in arrhythmias,[6]; 2.5 mg/kg iv,-72%
"COc1cc2c(cc1OC)C(=O)N(CCCN(C)CCc1ccccc1)CO2.Cl [Compound O, 2,3-Dihydro-6,7-dimethoxy-3-{3-[(methyl)(phenethyl)amino]propyl}-4H-1,3-benzoxazin-4-one hydrochloride]",solubility,[3],> 100 mg/mL
"COc1ccc(CCNCCCN2COc3cc(OC)c(OC)cc3C2=O)cc1OC.Cl [Compound P, 2,3-Dihydro-6,7-dimethoxy-3-[3-(3,4-dimethoxyphenethylamino)propyl]-4H-1,3-benzoxazin-4-one hydrochloride]",solubility,[3],> 100 mg/mL
"COc1ccc(CCNCCN2COc3cc(OC)c(OC)cc3C2=O)cc1OC.Cl [Compound R, 2,3-Dihydro-6,7-dimethoxy-3-[2-(3,4-dimethoxyphenethylamino)ethyl]-4H-1,3-benzoxazin-4-one hydrochloride]",solubility,[3],120 mg/mL
"COc1ccc(CCN(CCCN2COc3cc(OC)c(OC)cc3C2=O)Cc2ccccc2)cc1OC [Example 17, 2,3-Dihydro-6,7-dimethoxy-3-{3-[(benzyl)(3,4-dimethoxyphenethyl)amino]propyl}-4H-1,3-benzoxazin-4-one hydrochloride monohydrate]",solubility,[3],60 mg/mL
"NNc1nncc2ccccc12 [hydralazine, reference compound]",heart rate effect of hydralazine,"[2]; hydralazine 1 mg/kg iv, conscious dogs",causes tachycardia
